The record followed here is patent publication US7265149B2, “Indolyl derivatives” (Hoffmann-La Roche Inc., priority 2004, dated 2007).

Assay [1] concerns the target T1, PPARα (Homo sapiens, UniProt Q07869).
T1 construct: PPARα (aa 167 to 469); made in house; host or cells: E. coli BL21 (pLysS)
T1 sequence (Q07869 167-468 limits assumed): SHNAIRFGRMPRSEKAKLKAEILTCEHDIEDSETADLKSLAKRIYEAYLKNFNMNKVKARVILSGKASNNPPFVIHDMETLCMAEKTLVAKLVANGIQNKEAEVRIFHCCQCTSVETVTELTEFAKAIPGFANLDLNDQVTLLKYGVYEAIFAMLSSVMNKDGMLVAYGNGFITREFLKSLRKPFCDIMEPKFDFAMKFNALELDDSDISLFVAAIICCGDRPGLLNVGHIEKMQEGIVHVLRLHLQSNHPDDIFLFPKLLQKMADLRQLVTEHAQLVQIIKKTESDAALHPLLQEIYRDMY
In words: PPARα radioligand binding assay (scintillation proximity). Conditions: GST-PPARα-LBD fusion protein on SPA beads. From the text: (§1) Background information on the performed assays can be found in: Nichols J S et al. “Development of a scintillation proximity assay for peroxisome proliferator-activated receptor gamma ligand binding domain”, (1998) Anal. Biochem. 257: 112-119.
Full-length cDNA clones for humans PPARδ and PPARα and mouse PPARγ were obtained by RT-PCR from human adipose and mouse liver cRNA, respectively, cloned into plasmid vectors and verified by DNA sequencing. Bacterial and mammalian expression vectors were constructed to produce glutathione-s-transferase (GST) and Gal4 DNA binding domain proteins fused to the ligand binding domains (LBD) of PPARδ (aa 139 to 442), PPARγ (aa 174 to 476) and PPARα (aa 167 to 469). To accomplish this, the portions of the cloned sequences encoding the LBDs were amplified from the full-length clones by PCR and then subcloned into the plasmid vectors. Final clones were verified by DNA sequence analysis. […]
PPARα receptor binding was assayed in TKE50 (50 mM Tris-HCl, pH 8, 50 mM KCl, 2 mM EDTA, 0.1 mg/ml fatty acid-free BSA and 10 mM DTT). […] All binding assays were performed in 96 well plates and the amount of bound ligand measured on a Packard TopCount using OptiPlates (Packard). Nonspecific binding was determined in the presence of 10^−4 M unlabelled compound. […]
A general note: SPA uses beads or plates that emit light when radiolabelled molecules are held near them.

The target of assay [2] is T2, PPARγ (Mus musculus, UniProt P37238).
T2 construct: PPARγ (aa 174 to 476); made in house; host or cells: E. coli BL21 (pLysS)
T2 sequence (P37238 174-475 isoform P37238-2): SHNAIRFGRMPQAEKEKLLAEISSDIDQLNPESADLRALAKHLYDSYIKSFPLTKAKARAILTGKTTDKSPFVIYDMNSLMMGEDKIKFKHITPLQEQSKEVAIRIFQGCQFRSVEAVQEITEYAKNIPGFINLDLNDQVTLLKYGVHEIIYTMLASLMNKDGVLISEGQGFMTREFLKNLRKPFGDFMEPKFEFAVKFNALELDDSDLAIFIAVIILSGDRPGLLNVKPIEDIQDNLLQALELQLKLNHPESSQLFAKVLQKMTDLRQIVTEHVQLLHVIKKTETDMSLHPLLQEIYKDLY
In words: PPARγ radioligand binding assay (scintillation proximity). Conditions: GST-PPARγ-LBD fusion protein on SPA beads.
From the text: as §1
(§2) Full-length cDNA clones for humans PPARδ and PPARα and mouse PPARγ were obtained by RT-PCR from human adipose and mouse liver cRNA, respectively, cloned into plasmid vectors and verified by DNA sequencing. Bacterial and mammalian expression vectors were constructed to produce glutathione-s-transferase (GST) and Gal4 DNA binding domain proteins fused to the ligand binding domains (LBD) of PPARδ (aa 139 to 442), PPARγ (aa 174 to 476) and PPARα (aa 167 to 469). To accomplish this, the portions of the cloned sequences encoding the LBDs were amplified from the full-length clones by PCR and then subcloned into the plasmid vectors. Final clones were verified by DNA sequence analysis.
(§3) Induction, expression, and purification of GST-LBD fusion proteins were performed in E. coli strain BL21 (pLysS) cells by standard methods (Ref: Current Protocols in Molecular Biology, Wiley Press, edited by Ausubel et al.).
(§4) Radioligand Binding Assay
PPARγ receptor binding was assayed in TKE50 (50 mM Tris-HCl, pH 8, 50 mM KCl, 2 mM EDTA, 0.1 mg/ml fatty acid-free BSA and 10 mM DTT). For each 96 well reaction an 140 ng equivalent of GST-PPARγ-LBD fusion protein was bound to 10 μg SPA beads (PharmaciaAmersham) in a final volume of 50 ul by shaking. The resulting slurry was incubated for 1 h at RT and centrifuged for 2 min at 1300 g. The supernatant containing unbound protein was removed and the semidry pellet containig the recptor-coated beads was resolved in 50 μl of TKE. […] All binding assays were performed in 96 well plates and the amount of bound ligand measured on a Packard TopCount using OptiPlates (Packard). Nonspecific binding was determined in the presence of 10^−4 M unlabelled compound. […]

Assay [3] addresses T3, PPARδ (Homo sapiens, UniProt Q03181).
T3 construct: PPARδ (aa 139 to 442); made in house; host or cells: E. coli BL21 (pLysS)
T3 sequence (Q03181 139-441 limits assumed): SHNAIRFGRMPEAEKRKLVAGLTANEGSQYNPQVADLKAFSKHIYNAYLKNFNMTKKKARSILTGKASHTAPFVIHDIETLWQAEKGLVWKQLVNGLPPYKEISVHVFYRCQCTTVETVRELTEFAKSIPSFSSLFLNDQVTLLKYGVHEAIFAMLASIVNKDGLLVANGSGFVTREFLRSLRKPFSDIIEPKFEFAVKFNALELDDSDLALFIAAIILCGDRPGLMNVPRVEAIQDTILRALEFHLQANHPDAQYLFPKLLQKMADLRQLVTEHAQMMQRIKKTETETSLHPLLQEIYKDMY
The assay can be described thus: PPARδ radioligand binding assay (scintillation proximity). Conditions: GST-PPARδ-LBD fusion protein on SPA beads.
From the text: as §1, §2, §3, §4
PPARδ receptor binding was assayed in HNM10 (50 mM Hepes, pH 7.4, 10 mM NaCl, 5 mM MgCl2, 0.15 mg/ml fatty acid-free BSA and 15 mM DTT). For each 96 well reaction a 500 ng equivalent of GST-PPARδ-LBD fusion protein and radioligand, e.g. 20000 dpm {2-methyl-4-[4-methyl-2-(4-trifluoromethyl-phenyl)-thiazol-5-yl-ditritiomethylsulfanyl]-phenoxy}-acetic acid, was bound to 10 μg SPA beads (PharmaciaAmersham) in a final volume of 50 μl by shaking. The resulting slurry was incubated for 1 h at RT and centrifuged for 2 min at 1300 g. […] Radioligand was added and the reaction incubated at RT for 1 h and scintillation proximity counting performed in the presence of test compounds was determined. All binding assays were performed in 96 well plates and the amount of bound ligand was measured on a Packard TopCount using OptiPlates (Packard). […]

Consider `Cn1nc(-c2ccc(C(F)(F)F)cc2)c(Br)c1COc1ccc2ccn(CC(=O)O)c2c1` [Example 8, {6-[4-Bromo-2-methyl-5-(4-trifluoromethyl-phenyl)-2H-pyrazol-3-ylmethoxy]-indol-1-yl}-acetic acid], for which the values for the IC50 in assay [1], in assay [2] and in assay [3] were 2.57 µM, not below 10 µM and 0.004 µM, respectively.
`Cn1nc(-c2ccc(OC(F)(F)F)cc2)cc1CCCOc1ccc2ccn(CC(=O)O)c2c1` [Example 20, (6-{3-[2-Methyl-5-(4-trifluoromethoxy-phenyl)-2H-pyrazol-3-yl]-propoxy}-indol-1-yl)-acetic acid]: the IC50 (usually the midpoint of a concentration-inhibition curve) in assay [1] was 0.013 µM; in assay [2], not below 10 µM; in assay [3] it was 0.043 µM.
For `Cc1c(-c2ccc(Cl)cc2)nn(C)c1COc1ccc2ccn(CC(=O)O)c2c1` [Example 2, {6-[5-(4-Chloro-phenyl)-2,4-dimethyl-2H-pyrazol-3-ylmethoxy]-indol-1-yl}-acetic acid], the IC50 in assay [2] was not below 10 µM; in assay [3], 0.14 µM.
